Data reported in US6376753B1, “PURIFIED CYTOCHROME P450 POLYPEPTIDE CYP76B1 FROM HELIANTHUS TUBEROSUS AND ITS APPLICATIONS AS BIOCATALYST IN PARTICULAR FOR THE DEGRADATION OF ENVIRONMENTAL POLLUTANTS AND FOR ALTERING THE RESISTANCE OF PLANTS SENSITIVE TO PHENYLUREA FAMILY OF HERBICIDES” (priority 1997, dated 2002).

Test system: tobacco transformed with CYP76B1
Test: Leaf pieces of tobacco transformed with CYP76B1 aged on herbicide medium
Format: cell-based
Conditions: 10 days on MS medium containing 0.5 μM linuron; versus empty plasmid
Protocol: FIG. 15 : Leaf pieces from tobacco transformed with CYP76B1 (left) or with an empty plasmid (right) were aged for 10 days on Murashige and Skoog (MS) medium containing 0.5 μM linuron.
The CYP76B1 cDNA was inserted in vector pBDX (Gachotte D., 1995). The resulting vector was mobilized into Agrobacterium tumefaciens strain LBA4404 by triparental mating (Ditta G. et al., 1980). Plant transformation was realized according to Horsch et al. (1985): tobacco leaf disks were soaked for 10 minutes in an Agrobacterium solution, blotted dry and placed on MS callus-inducing medium containing 500 μg/ml cefotaxime and 100 μg/ml kanamycin. After four to six weeks, shoots were transferred on MS-rooting medium containing 100 μg/ml cefotaxime and 100 μg/ml kanamycin. After rooting, plants were transferred in soil.

CON(C)C(=O)Nc1ccc(Cl)c(Cl)c1 [linuron]
chlorophyll destruction in leaf pieces: avoids chrorophyll destruction
